In US20140323504A1, “Pyrazolo[4,3-c]Pyridine Derivatives As Kinase Inhibitors” (Cellzome Limited, priority 2011, published 2014):

Columns and labels:
JAK1 = molecular target: T1, JAK1 (Homo sapiens, UniProt P23458); assay: Kinobeads assay with antibody detection, JAK1; type: binding; settings: mixed Molt4/Ramos lysate, read-out: JAK1 inhibition value (IC50)
T1 construct: endogenous in cells; host or cells: mixed Molt4/Ramos cell lysate (1:2)
Experimental: (§1) The compounds of the present invention as described in the previous examples were tested in a Kinobeads™ assay as described for ZAP-70 (WO-A 2007/137867). Briefly, test compounds (at various concentrations) and the affinity matrix with the immobilized aminopyrido-pyrimidine ligand 24 were added to cell lysate aliquots and allowed to bind to the proteins in the lysate sample. After the incubation time the beads with captured proteins were separated from the lysate. Bound proteins were then eluted and the presence of JAK1; JAK2, JAK3 and TYK2 was detected and quantified using specific antibodies in a dot blot procedure and the Odyssey infrared detection system. Dose response curves for individual kinases were generated and IC50 values calculated. Kinobeads™ assays for ZAP-70 (WO-A 2007/137867) and for kinase selectivity profiling (WO-A 2006/134056) have been previously described.
(§2) 5×DP buffer: 250 mM Tris-HCl pH 7.4, 25% Glycerol, 7.5 mM MgCl2, 750 mM NaCl, 5 mM Na3VO4; filter the 5×DP buffer through a 0.22 μm filter and store in aliquot at −80° C. The 5×DP buffer is diluted with H2O to 1×DP buffer containing 1 mM DTT and 25 mM NaF.
(§3) Stock solutions of test compounds were prepared in DMSO. In a 96 well plate 30 μL solution of diluted test compounds at 5 mM in DMSO were prepared. Starting with this solution a 1:3 dilution series (9 steps) was prepared. For control experiments (no test compound) a buffer containing 2% DMSO was used.
(§4) Molt4 cells (ATCC catalogue number CRL-1582) and Ramos cells (ATCC catalogue number CRL-1596) were grown in 1 L Spinner flasks (Integra Biosciences, #182101) in suspension in RPMI 1640 medium (Invitrogen, #21875-034) supplemented with 10% Fetal Bovine Serum (Invitrogen) at a density between 0.15×10^6 and 1.2×10^6 cells/mL. Cells were harvested by centrifugation, washed once with 1×PBS buffer (Invitrogen, #14190-094) and cell pellets were frozen in liquid nitrogen and subsequently stored at −80° C. Cells were homogenized in a Potter S homogenizer in lysis buffer: 50 mM Tris-HCl, 0.8% NP40, 5% glycerol, 150 mM NaCl, 1.5 mM MgCl2, 25 mM NaF, 1 mM sodium vanadate, 1 mM DTT, pH 7.5. One complete EDTA-free tablet (protease inhibitor cocktail, Roche Diagnostics, 1873580) per 25 mL buffer was added. The material was dounced 10 times using a mechanized POTTER S, transferred to 50 mL falcon tubes, incubated for 30 minutes on ice and spun down for 10 minutes at 20,000 g at 4° C. (10,000 rpm in Sorvall SLA600, precooled). The supernatant was transferred to an ultracentrifuge (UZ)-polycarbonate tube (Beckmann, 355654) and spun for 1 hour at 100.000 g at 4° C. (33.500 rpm in Ti50.2, precooled). The supernatant was transferred again to a fresh 50 mL falcon tube, the protein concentration was determined by a Bradford assay (BioRad) and samples containing 50 mg of protein per aliquot were prepared. The samples were immediately used for experiments or frozen in liquid nitrogen and stored frozen at −80° C.
(§5) Cell lysate (approximately 50 mg protein per plate) was thawed in a water bath at room temperature and then stored on ice. To the thawed cell lysate 1×DP 0.8% NP40 buffer containing protease inhibitors (1 tablet for 25 mL buffer; EDTA-free protease inhibitor cocktail; Roche. Diagnostics 1873580) was added in order to reach a final protein concentration of 10 mg/mL total protein. The diluted cell lysate was stored on ice. Mixed Molt4Ramos lysate was prepared by combining one volume of Molt4 lysate and two volumes of Ramos lysate (ratio 1:2).
(§6) Plates were sealed and incubated for 3 hours in a cold room on a plate shaker (Heidolph tiramax 1000) at 750 rpm. Afterwards the plate was washed 3 times with 230 μL washing buffer (1×DP 0.4% NP40). The filter plate was placed on top of a collection plate (Greiner bio-one, PP-microplate 96 well V-shape, 65120) and the beads were then eluted with 20 μL of sample buffer (100 mM Tris, pH 7.4, 4% SDS, 0.00025% bromophenol blue, 20% glycerol, 50 mM DTT). […]

JAK3 = molecular target: T2, JAK3 (Homo sapiens, UniProt P52333); assay: Kinobeads assay with antibody detection, JAK3; type: binding; set-up: endogenous in cells; host or cells: mixed Molt4/Ramos cell lysate (1:2); settings: mixed Molt4/Ramos lysate, read-out: JAK3 inhibition value (IC50)
T2 sequence (P52333 1-1124): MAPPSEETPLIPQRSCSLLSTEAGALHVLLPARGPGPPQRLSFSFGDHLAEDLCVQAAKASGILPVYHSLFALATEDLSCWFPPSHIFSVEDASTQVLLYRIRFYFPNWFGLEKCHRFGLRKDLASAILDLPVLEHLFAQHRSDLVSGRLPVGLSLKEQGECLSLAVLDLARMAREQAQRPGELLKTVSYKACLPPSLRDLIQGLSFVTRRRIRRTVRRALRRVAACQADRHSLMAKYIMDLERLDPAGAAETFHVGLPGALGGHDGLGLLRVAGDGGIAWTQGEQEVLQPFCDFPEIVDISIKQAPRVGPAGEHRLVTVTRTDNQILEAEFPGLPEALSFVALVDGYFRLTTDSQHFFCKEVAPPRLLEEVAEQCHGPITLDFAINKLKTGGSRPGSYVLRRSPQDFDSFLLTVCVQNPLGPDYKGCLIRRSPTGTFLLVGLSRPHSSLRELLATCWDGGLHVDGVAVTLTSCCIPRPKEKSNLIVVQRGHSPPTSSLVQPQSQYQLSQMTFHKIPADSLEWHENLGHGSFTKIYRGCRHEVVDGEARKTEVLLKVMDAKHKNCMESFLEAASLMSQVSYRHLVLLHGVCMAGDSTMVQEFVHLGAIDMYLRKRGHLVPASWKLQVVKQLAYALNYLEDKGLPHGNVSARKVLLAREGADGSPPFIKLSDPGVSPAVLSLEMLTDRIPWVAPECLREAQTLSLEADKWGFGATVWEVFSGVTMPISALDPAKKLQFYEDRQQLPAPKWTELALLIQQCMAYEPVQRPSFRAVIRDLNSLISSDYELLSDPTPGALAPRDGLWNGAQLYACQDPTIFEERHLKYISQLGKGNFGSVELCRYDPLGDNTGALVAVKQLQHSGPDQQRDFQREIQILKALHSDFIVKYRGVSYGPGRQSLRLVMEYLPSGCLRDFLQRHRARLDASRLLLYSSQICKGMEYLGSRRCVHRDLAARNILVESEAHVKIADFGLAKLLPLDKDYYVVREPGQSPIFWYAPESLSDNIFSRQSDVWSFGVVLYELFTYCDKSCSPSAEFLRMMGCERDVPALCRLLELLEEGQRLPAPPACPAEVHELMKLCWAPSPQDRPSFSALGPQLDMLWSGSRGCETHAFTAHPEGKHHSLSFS
Experimental: as §1, §2, §3, §4, §5, §6

T1 sequence (P23458 whole entry): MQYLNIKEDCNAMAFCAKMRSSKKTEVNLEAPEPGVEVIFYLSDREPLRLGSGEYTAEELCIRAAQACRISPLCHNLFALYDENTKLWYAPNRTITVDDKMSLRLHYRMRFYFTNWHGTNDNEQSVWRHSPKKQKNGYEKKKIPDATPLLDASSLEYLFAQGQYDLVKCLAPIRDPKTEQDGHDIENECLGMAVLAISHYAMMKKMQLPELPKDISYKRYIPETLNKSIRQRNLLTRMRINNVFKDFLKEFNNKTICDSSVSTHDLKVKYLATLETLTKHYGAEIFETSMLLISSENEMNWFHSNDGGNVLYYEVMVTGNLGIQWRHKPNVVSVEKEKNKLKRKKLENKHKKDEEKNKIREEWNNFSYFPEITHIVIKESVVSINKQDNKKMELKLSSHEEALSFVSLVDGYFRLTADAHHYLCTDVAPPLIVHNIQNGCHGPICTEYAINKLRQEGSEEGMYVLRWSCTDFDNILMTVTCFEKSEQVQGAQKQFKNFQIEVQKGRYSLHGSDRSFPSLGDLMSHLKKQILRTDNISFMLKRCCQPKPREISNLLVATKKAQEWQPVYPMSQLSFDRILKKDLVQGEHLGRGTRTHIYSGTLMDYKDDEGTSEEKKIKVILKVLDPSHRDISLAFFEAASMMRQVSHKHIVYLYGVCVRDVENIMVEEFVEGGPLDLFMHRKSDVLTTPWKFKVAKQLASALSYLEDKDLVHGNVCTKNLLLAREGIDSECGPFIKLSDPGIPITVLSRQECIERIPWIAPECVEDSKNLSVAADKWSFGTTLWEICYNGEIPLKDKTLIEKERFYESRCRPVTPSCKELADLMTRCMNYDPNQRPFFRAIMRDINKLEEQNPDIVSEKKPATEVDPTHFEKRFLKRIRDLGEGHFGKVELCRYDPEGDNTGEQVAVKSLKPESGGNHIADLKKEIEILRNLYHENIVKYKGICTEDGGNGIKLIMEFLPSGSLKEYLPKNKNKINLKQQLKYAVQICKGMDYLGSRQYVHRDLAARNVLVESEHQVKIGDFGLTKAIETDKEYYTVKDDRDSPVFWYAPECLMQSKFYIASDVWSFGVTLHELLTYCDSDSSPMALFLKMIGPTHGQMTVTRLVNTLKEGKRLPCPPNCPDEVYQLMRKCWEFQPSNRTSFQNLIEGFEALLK

**Q.** With `C=CC(=O)Nc1cccc(Cn2ncc3cnc(Nc4cnn(C)c4)nc32)c1` [Example 1, N-(3-((6-((1-Methyl-1H-pyrazol-4-yl)amino)-1H-pyrazolo[3,4-d]pyrimidin-1-yl)methyl)phenyl)acrylamide] as the molecule, how does the IC50 (JAK1) read?
**A.** Its IC50 is > 10 µM.

**Q.** And the IC50 (JAK3)?
**A.** Its IC50 is 5 nM.

**Q.** What does the source list for `C=CC(=O)Nc1cc(Cn2ncc3cnc(Nc4cnn(C)c4)nc32)ccc1F` [Example 2, […]]?
**A.** IC50 (JAK1): > 10 µM; IC50 (JAK3): 16 nM

**Q.** What does the source list for `C#CC(=O)Nc1cccc(Cn2ncc3cnc(Nc4cnn(C)c4)nc32)c1` [Example 3, N-(3-((6-((1-Methyl-1H-pyrazol-4-yl)amino)-1H-pyrazolo[3,4-d]pyrimidin-1-yl)methyl)phenyl)propiolamide]?
**A.** IC50 (JAK1): > 10 µM; IC50 (JAK3): 10 nM

**Q.** What does the source list for `C=CS(=O)(=O)Nc1cccc(Cn2ncc3cnc(Nc4cnn(C)c4)nc32)c1` [Example 4, N-(3-((6-((1-Methyl-1H-pyrazol-4-yl)amino)-1H-pyrazolo[3,4-d]pyrimidin-1-yl)methyl)phenyl)ethenesulfonamide]?
**A.** IC50 (JAK1): > 10 µM; IC50 (JAK3): 10 nM

**Q.** For `C=C(C)C(=O)Nc1cccc(Cn2ncc3cnc(Nc4cnn(C)c4)nc32)c1` [Example 5, N-(3-((6-((1-Methyl-1H-pyrazol-4-yl)amino)-1H-pyrazolo[3,4-d]pyrimidin-1-yl)methyl)phenyl)methacrylamide], which IC50 (JAK1) is on record?
**A.** The IC50 was > 10 µM.

**Q.** What about the IC50 (JAK3) of the same molecule?
**A.** The IC50 was 57 nM.

**Q.** What does the source list for `C=CS(=O)(=O)Nc1cccc(Cn2ccc3cnc(Nc4cnn(C)c4)nc32)c1` [Example 7, N-(3-((2-((1-Methyl-1H-pyrazol-4-yl)amino)-7H-pyrrolo[2,3-d]pyrimidin-7-yl)methyl)phenyl)ethenesulfonamide]?
**A.** IC50 (JAK1): 7.69 µM; IC50 (JAK3): 12 nM

**Q.** With `CC(=O)Nc1cccc(Cn2ncc3cnc(Nc4cnn(C)c4)nc32)c1` [compound 2, N-(3-((6-((1-methyl-1H-pyrazol-4-yl)amino)-1H-pyrazolo[3,4-d]pyrimidin-1-yl)methyl)phenyl)acetamide, reference compound] as the molecule, how does the IC50 (JAK1) read?
**A.** The IC50 was > 10 µM.

**Q.** And the IC50 (JAK3)?
**A.** The IC50 was 206 nM.
